By IC50 is commonly meant the concentration needed to halve the response being measured. High values mean lower potency, low ones higher potency.

These results are taken from US10703746B2, “Mutant IDH1 inhibitors useful for treating cancer” (THE UNITED STATES OF AMERICA, AS REPRESENTED BY THE …, priority 2014, dated 2020).

One assay deals with IDH1 R132H (Homo sapiens, UniProt O75874, R132H). Nature of the assay: IDH1 R132H enzymatic assay (NADPH depletion coupled to diaphorase/resazurin). In kind it is biochemical. The conditions noted are these: IDH1 R132H enzymatic inhibition, IC50 class. Background: Resazurin is reduced to fluorescent resorufin, in cell work by metabolically active cells.
The next assay has as its target IDH1 R132C (Homo sapiens, UniProt O75874, R132C). Nature of the assay: IDH1 R132C enzymatic assay (NADPH depletion coupled to diaphorase/resazurin). In kind it is biochemical. The conditions noted are these: IDH1 R132C enzymatic inhibition, IC50 class. The gist of the method: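 NADPH depletion, read via diaphorase/resazurin coupling, after adding substrate at 0.6 mM α-KG and 0.012 mM NADPH. Beforehand, 0.00032 mg/mL enzyme sat with compound 30 min at room temperature in pH 6.5 potassium phosphate buffer with MgCl2, glycerol and BSA.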

Sequence of IDH1 R132H (O75874 whole entry R132H): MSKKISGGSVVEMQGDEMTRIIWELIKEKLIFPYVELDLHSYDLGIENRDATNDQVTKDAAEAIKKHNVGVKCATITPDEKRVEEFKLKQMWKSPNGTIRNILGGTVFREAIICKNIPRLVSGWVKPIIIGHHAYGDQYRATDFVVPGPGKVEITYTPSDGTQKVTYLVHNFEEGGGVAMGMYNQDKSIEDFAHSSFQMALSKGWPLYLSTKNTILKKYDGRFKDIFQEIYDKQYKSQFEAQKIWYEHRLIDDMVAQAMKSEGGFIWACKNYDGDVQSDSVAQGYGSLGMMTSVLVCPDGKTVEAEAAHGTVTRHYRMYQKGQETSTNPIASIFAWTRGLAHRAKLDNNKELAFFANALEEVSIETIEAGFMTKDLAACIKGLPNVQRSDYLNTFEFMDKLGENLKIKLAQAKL
Sequence of IDH1 R132C (O75874 whole entry R132C): as the sequence (O75874 whole entry R132H) above, with H132C counted along it

Regarding `CCc1cccc(CC)c1-n1c(C)c(C(=O)N(C)CCN)cc(-c2nc(-c3ccc(Cl)cc3)cs2)c1=O` [Compound 152], the IC50 against IDH1 R132H and against IDH1 R132C was 1000 to 5000 nM in each case.
Take `CCc1cccc(CC)c1-n1c(C)c(C(=O)NCCO)cc(-c2nc(-c3ccc(Cl)cc3)cs2)c1=O` [Compound 153]: the IC50 at IDH1 R132H was in the range of 300 to 1000 nM; at IDH1 R132C it was 1000 to 5000 nM.
On the same counts, the results for `COc1ccc(OC)c(-n2c3c(cc(-n4cnc(-c5ccccc5)c4)c2=O)C(=O)CC(C)(C)C3)c1` [Compound 154] are 5000 to 20000 nM and 5000 to 20000 nM.
In the same order, the values of `CCc1cccc(CC)c1-n1c(CC(C)C)c(C(=O)N2CCNC(=O)C2c2ccccc2)cc(-c2nc(-c3ccc(Cl)cc3)cs2)c1=O` (stereo not shown) [Compound 155] are 300 to 1000 nM and under 300 nM.
On the same counts, the results for `CCc1cccc(CC)c1-n1c(C)c(C(=O)N2CCCCC2)cc(-c2nc(-c3ccc(Cl)cc3)cs2)c1=O` [Compound 156] are 1000 to 5000 nM and 1000 to 5000 nM.
Turning to `COc1ccc(OC)c(-n2c3c(cc(-c4ccn(-c5ccccc5)n4)c2=O)C(=O)CC(C)(C)C3)c1` [Compound 158], the IC50 on IDH1 R132H and against IDH1 R132C was 1000 to 5000 nM each time.
`CCc1cccc(CC)c1-n1c(CC(C)C)c(C(=O)NC2CCCCC2O)cc(-c2nc(-c3ccc(Cl)cc3)cs2)c1=O` (stereo not shown) [Compound 159]: the IC50 at IDH1 R132H and against IDH1 R132C was 1000 to 5000 nM in each case.
In the case of `CCc1cccc(CC)c1-n1c(CC(C)C)c(C(=O)N2CCNCC2)cc(-c2nc(-c3ccc(C(C)(C)C)cc3)c(C)s2)c1=O` [Compound 160], the IC50 against IDH1 R132H and against IDH1 R132C was 1000 to 5000 nM throughout.
For the compound `CCc1cccc(CC)c1-n1c2c(cc(-c3nc(-c4cnc(C)nc4)c(C)s3)c1=O)C(=O)CC(C)(C)C2` [Compound 161], the half-inhibitory concentration (IC50) against IDH1 R132H was in the range of 5000 to 20000 nM; against IDH1 R132C it was 1000 to 5000 nM.
Regarding `CCc1cccc(CC)c1-n1c2c(cc(-c3nc(-c4ccc(C(=O)O)cc4)cs3)c1=O)C(=O)CC(C)(C)C2` [Compound 162], the IC50 against IDH1 R132H is over 20000 nM; at IDH1 R132C, 5000 to 20000 nM.
On the same counts, the results for `CCc1cccc(CC)c1-n1c2c(cc(-c3nc(-c4cccc(OC)c4)cs3)c1=O)C(=O)CC(C)(C)C2` [Compound 163] are over 20000 nM and over 20000 nM.
On the same counts, the results for `CSc1ccccc1-n1c2c(cc(-c3nc(-c4ccc(Cl)cc4)cs3)c1=O)C(=O)CC(C)(C)C2` [Compound 164] are 1000 to 5000 nM and 300 to 1000 nM.
On the same counts, the results for `COc1ccc(-n2cccc(-c3nc(-c4ccc(Cl)cc4)cs3)c2=O)c(OC)c1` [Compound 165] are over 20000 nM and over 20000 nM.
On to `Cc1ccc(C(=O)O)cc1-n1c2c(cc(-c3nc(-c4ccc(Cl)cc4)cs3)c1=O)C(=O)CC(C)(C)C2` [Compound 166], for which the IC50 was over 20000 nM against IDH1 R132H and 5000 to 20000 nM against IDH1 R132C.
Regarding `CC1(C)CC(=O)c2cc(-c3nc(-c4ccc(Cl)cc4)cs3)c(=O)n(-c3ccccc3Cl)c2C1` [Compound 167], the IC50 against IDH1 R132H and against IDH1 R132C was under 300 nM throughout.
Consider `CCc1cccc(CC)c1-n1c(C(C)C)c(C(=O)N2CCNC(=O)C2)cc(-c2nc(-c3ccc(Cl)cc3)cs2)c1=O` [Compound 168], for which the IC50 at IDH1 R132H and on IDH1 R132C was 300 to 1000 nM throughout.
With `CCc1cccc(CC)c1-n1c(C)c(C(=O)NCCOC)cc(-c2nc(-c3ccc(Cl)cc3)cs2)c1=O` [Compound 169], the IC50 was 1000 to 5000 nM on IDH1 R132H and 300 to 1000 nM on IDH1 R132C.
In the same order, the values of `CCc1cccc(CC)c1-n1c(-c2ccccc2)c(C#N)cc(-c2nc(-c3ccc(Cl)cc3)cs2)c1=O` [Compound 170] are 5000 to 20000 nM and 1000 to 5000 nM.
On the same counts, the results for `CCc1cccc(CC)c1-n1c(CC(C)C)c(C(=O)N2CCNC(C(=O)O)C2)cc(-c2nc(-c3ccc(Cl)cc3)cs2)c1=O` (stereo not shown) [Compound 171] are under 300 nM and under 300 nM.
On the same counts, the results for `CCc1cccc(CC)c1-n1c(CC(C)C)c(C(=O)NC[C@@H](N)C(=O)O)cc(-c2nc(-c3ccc(Cl)cc3)cs2)c1=O` [Compound 172] are 300 to 1000 nM and under 300 nM.
